The target of the experiment is T1, rACE2 (Homo sapiens, UniProt Q9BYF1).
T1 construct: purchased R&D systems, Zug
Nature of the experiment: ACE2 enzymatic activity assay with fluorogenic substrate. It is filed as biochemical. As to conditions: range of 0.045 nM to 11100 nM; positive control; read-out: half maximal inhibitory concentration (IC50) of ACE2 catalytic activity. The protocol:
The ACE2 enzymatic activity assay was designed to measure the exopeptidase activity of ACE2 and to screen for inhibition. Activity was measured using a commercially available synthetic fluorogenic substrate for ACE2 and rACE2 (R&D systems, Zug). rACE2 was used to generate a standard curve using the assay buffer, 75 mM TRIS, 1M NaCl, ph7.5. Natural extract screening was performed using 100 ng/ml rACE2 and 15 μM ACE2 fluorogenic substrate plus the Chlorella extracts in various concentrations. Subsequently the mixture was incubated for 1 h at 37° C. and measured using Flexstation 3 (Molecular Devices, San Jose, CA, USA) at excitation 320 nm and emission 405 nm.

T1 sequence (Q9BYF1 18-805): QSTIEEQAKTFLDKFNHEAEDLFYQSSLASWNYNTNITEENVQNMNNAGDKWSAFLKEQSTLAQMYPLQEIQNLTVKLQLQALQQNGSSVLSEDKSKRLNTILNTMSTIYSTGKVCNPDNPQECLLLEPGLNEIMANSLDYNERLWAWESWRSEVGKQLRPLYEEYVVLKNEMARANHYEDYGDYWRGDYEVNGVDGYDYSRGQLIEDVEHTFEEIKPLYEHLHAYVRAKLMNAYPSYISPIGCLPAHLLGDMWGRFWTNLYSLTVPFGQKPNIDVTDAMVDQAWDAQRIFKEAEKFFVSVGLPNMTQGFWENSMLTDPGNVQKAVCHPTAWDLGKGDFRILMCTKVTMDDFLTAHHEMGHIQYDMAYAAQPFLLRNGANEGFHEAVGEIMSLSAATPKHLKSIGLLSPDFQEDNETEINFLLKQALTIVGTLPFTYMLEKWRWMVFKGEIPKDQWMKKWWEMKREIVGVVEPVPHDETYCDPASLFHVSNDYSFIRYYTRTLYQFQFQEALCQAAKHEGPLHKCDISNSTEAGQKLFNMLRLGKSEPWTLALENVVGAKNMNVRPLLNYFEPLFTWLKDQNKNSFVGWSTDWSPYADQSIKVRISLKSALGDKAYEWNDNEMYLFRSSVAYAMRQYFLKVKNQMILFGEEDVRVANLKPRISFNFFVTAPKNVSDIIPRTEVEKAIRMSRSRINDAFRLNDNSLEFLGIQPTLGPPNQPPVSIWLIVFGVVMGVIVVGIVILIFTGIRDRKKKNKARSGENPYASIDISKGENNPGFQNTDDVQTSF

For `CC(C)C[C@H](N[C@@H](Cc1cncn1Cc1cc(Cl)cc(Cl)c1)C(=O)O)C(=O)O` [MLN-4760], the IC50 stood at 0.19 nM.

The values are drawn from patent publication US20240189375A1, “COMPOSITION COMPRISING A […] AN EXTRACT THEREOF FOR USE IN THE TREATMENT OF A VIRAL DISEASE” (priority 2021, published 2024).
